Results taken from PMC6437697 (Journal of Medicinal Chemistry, 2019).

How the values were obtained:
Test in all cases: KINOMEscan
Assay type in all cases: binding
Details in all cases: read-out: % control activity remaining
EPHA2 = target: T1, EPHA2 (Homo sapiens, UniProt P29317)
T1 construct: purchased Eurofins DiscoverX KINOMEscan

CAMK2A = target: T2, CAMK2A (Homo sapiens, UniProt Q9UQM7)
T2 construct: purchased Eurofins DiscoverX KINOMEscan

MAP3K4 = target: T3, MAP3K4 (Homo sapiens, UniProt Q9Y6R4)
T3 construct: purchased Eurofins DiscoverX KINOMEscan

[1] = target: T4, EGFR(L747-E749del, A750P) (Homo sapiens, UniProt P00533, A750P/DEL747-749)
T4 construct: purchased Eurofins DiscoverX KINOMEscan

CAMK2B = target: T5, CAMK2B (Homo sapiens, UniProt Q13554)
T5 construct: purchased Eurofins DiscoverX KINOMEscan

PIK3CA(I800L) = target: T6, PIK3CA(I800L) (Homo sapiens, UniProt P42336, I800L)
T6 construct: purchased Eurofins DiscoverX KINOMEscan

WNK1 = target: T7, WNK1 (Homo sapiens, UniProt Q9H4A3)
T7 construct: purchased Eurofins DiscoverX KINOMEscan
T7 sequence (Q9H4A3 whole entry): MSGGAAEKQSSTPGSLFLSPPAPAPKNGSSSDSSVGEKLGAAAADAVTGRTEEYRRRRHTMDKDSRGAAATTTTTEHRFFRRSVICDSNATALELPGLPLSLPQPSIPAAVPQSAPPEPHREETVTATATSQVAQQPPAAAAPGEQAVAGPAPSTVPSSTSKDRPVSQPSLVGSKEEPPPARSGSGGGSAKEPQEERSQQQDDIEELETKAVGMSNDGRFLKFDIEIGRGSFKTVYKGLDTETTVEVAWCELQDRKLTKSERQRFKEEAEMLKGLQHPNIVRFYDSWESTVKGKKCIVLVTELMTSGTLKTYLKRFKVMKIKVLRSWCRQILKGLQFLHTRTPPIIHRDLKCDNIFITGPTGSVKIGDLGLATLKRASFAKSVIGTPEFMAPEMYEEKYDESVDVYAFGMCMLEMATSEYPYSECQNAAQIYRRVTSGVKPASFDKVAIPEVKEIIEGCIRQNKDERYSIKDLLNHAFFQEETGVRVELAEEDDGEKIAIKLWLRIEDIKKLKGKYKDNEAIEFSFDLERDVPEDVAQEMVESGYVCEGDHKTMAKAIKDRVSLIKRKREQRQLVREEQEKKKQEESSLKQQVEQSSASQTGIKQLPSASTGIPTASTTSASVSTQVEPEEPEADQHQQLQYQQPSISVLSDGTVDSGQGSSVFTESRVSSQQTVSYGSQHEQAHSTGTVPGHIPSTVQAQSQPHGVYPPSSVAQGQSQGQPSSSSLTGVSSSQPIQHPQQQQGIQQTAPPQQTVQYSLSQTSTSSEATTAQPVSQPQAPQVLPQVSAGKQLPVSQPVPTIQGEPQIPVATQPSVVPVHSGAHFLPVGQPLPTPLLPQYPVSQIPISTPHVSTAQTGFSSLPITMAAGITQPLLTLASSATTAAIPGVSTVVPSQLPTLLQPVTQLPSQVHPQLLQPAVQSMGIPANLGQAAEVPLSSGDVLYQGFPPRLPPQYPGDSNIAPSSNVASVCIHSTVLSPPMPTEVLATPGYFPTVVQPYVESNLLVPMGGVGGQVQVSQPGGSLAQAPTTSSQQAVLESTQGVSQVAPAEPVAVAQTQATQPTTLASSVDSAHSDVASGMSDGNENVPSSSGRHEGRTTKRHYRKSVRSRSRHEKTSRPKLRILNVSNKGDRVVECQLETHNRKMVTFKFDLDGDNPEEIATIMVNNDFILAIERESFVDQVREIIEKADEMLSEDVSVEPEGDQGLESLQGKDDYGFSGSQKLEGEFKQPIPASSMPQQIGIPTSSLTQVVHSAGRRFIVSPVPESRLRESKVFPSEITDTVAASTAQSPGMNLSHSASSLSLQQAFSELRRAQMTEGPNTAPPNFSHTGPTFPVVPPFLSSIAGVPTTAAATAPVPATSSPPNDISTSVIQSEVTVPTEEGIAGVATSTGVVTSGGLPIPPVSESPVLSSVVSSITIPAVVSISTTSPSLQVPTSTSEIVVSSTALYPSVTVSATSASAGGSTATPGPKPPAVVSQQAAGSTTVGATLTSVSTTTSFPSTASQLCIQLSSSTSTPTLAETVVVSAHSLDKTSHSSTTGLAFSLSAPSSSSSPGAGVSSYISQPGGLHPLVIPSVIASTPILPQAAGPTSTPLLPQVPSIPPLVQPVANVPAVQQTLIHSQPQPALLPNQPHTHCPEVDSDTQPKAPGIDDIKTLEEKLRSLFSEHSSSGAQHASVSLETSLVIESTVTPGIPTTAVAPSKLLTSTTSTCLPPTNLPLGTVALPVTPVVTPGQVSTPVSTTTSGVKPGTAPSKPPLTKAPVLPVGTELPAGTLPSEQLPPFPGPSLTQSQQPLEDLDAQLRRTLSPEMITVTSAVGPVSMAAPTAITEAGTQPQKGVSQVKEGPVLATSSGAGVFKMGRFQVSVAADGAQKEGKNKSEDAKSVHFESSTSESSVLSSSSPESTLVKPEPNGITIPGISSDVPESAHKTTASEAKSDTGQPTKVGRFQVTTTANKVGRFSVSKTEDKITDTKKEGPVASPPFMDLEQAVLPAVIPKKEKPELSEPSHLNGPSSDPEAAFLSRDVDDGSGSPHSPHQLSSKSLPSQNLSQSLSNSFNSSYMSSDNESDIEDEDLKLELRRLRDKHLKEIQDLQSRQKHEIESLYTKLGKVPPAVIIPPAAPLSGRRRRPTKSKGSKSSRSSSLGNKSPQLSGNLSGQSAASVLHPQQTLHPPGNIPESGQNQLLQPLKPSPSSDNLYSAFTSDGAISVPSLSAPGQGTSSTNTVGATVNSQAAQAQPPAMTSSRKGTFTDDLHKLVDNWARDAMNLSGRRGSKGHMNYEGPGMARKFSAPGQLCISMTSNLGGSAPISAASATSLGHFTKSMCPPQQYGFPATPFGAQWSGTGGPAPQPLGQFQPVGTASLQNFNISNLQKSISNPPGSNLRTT

IKK-beta = target: T8, IKK-beta (Homo sapiens, UniProt O14920)
T8 construct: purchased Eurofins DiscoverX KINOMEscan
T8 sequence (O14920 1-756): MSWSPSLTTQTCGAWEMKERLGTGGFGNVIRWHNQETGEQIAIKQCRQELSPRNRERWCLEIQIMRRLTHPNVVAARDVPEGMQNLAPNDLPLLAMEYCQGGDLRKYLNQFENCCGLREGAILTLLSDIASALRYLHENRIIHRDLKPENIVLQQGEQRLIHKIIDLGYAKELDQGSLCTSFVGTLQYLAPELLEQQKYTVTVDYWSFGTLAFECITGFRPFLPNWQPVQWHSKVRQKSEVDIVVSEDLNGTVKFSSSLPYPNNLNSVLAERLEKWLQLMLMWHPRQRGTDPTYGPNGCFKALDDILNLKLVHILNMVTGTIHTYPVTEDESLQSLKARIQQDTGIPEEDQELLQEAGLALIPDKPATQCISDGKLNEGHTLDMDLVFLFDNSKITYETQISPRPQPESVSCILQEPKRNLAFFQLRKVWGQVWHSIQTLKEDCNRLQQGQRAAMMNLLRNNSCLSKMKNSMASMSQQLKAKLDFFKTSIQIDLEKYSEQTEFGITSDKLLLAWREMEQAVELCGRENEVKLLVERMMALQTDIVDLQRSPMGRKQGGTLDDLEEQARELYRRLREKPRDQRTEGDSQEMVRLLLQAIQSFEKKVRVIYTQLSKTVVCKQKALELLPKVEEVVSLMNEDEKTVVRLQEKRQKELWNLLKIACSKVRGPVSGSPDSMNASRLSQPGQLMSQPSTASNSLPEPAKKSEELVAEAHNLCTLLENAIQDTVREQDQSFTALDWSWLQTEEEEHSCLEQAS

ALK = target: T9, ALK (Homo sapiens, UniProt Q9UM73)
T9 construct: purchased Eurofins DiscoverX KINOMEscan

SRPK3 = target: T10, SRPK3 (Homo sapiens, UniProt Q9UPE1)
T10 construct: purchased Eurofins DiscoverX KINOMEscan
T10 sequence (Q9UPE1 whole entry): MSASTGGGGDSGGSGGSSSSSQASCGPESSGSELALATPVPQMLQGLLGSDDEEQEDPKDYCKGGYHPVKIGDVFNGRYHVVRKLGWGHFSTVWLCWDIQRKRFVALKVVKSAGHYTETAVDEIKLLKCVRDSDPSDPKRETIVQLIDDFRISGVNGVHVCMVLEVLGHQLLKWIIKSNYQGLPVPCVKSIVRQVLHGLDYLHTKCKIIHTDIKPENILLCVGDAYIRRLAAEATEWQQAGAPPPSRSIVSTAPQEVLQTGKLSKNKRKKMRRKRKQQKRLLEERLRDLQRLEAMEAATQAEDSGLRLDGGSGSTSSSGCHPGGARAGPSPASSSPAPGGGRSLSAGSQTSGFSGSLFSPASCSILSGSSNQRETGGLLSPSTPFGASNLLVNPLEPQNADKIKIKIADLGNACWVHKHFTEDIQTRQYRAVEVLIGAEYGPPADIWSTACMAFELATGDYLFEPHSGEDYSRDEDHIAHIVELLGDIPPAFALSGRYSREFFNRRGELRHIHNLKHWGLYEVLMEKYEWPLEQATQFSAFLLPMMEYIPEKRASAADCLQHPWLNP

DDR2 = target: T11, DDR2 (Homo sapiens, UniProt Q16832)
T11 construct: purchased Eurofins DiscoverX KINOMEscan
T11 sequence (Q16832 22-855): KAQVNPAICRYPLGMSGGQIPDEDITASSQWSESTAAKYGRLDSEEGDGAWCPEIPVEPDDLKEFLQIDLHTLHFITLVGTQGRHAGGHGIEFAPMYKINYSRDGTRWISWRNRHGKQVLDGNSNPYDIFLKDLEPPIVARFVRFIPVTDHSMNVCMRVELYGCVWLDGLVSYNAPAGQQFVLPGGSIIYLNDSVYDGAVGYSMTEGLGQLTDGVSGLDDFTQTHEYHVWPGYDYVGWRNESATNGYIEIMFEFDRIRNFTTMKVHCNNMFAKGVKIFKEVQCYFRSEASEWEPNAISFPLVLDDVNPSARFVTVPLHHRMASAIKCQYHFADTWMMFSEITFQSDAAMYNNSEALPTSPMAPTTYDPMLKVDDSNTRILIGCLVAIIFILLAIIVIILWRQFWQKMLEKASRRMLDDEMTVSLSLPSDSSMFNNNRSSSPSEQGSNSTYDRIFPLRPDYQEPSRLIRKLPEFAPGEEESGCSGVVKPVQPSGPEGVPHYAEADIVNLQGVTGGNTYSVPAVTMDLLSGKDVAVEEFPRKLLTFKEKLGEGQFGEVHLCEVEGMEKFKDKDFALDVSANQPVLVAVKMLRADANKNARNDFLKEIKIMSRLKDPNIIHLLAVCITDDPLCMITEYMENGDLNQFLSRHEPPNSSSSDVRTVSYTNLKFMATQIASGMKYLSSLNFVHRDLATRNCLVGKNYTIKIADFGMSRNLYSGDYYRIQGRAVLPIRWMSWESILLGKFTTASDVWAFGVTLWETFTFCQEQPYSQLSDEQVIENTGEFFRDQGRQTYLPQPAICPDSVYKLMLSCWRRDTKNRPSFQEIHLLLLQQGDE

CSF1R = target: T12, CSF1R (Homo sapiens, UniProt P07333)
T12 construct: purchased Eurofins DiscoverX KINOMEscan

PRKCD = target: T13, PRKCD (Homo sapiens, UniProt Q05655)
T13 construct: purchased Eurofins DiscoverX KINOMEscan

LOK = target: T14, LOK (Homo sapiens, UniProt O94804)
T14 construct: purchased Eurofins DiscoverX KINOMEscan

ERK3 = target: T15, ERK3 (Homo sapiens, UniProt Q16659)
T15 construct: purchased Eurofins DiscoverX KINOMEscan
T15 sequence (Q16659 whole entry): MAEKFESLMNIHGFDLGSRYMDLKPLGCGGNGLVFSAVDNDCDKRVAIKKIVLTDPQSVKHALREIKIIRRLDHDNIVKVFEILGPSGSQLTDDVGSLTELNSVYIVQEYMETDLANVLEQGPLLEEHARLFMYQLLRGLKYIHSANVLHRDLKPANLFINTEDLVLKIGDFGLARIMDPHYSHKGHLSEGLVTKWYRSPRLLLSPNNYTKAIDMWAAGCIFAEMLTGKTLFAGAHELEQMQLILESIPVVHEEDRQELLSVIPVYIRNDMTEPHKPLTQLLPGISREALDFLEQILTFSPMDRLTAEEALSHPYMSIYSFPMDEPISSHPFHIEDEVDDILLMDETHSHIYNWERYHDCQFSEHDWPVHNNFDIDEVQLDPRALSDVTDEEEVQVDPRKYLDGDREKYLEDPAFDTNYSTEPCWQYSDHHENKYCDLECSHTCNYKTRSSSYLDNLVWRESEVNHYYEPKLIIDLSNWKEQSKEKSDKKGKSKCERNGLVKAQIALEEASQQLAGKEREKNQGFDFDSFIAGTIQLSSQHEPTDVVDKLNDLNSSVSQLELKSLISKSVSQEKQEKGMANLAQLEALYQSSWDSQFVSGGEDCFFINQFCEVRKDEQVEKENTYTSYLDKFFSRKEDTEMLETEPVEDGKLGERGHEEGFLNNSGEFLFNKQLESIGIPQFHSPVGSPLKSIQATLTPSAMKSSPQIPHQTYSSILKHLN

SGK = target: T16, SGK (Homo sapiens, UniProt O00141)
T16 construct: purchased Eurofins DiscoverX KINOMEscan
T16 sequence (O00141 1-431): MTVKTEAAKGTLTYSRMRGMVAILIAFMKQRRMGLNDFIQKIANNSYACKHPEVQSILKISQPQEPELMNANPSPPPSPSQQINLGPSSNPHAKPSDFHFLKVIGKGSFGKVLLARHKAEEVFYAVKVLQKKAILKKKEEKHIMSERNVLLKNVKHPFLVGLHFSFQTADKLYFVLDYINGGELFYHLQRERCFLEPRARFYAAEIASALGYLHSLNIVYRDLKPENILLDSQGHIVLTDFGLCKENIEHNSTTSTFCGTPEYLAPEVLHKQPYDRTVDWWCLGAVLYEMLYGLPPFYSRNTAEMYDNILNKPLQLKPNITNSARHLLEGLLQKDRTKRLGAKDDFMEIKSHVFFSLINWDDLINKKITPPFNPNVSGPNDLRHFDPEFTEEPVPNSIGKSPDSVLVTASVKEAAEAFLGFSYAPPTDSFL

T1 sequence (P29317 24-976): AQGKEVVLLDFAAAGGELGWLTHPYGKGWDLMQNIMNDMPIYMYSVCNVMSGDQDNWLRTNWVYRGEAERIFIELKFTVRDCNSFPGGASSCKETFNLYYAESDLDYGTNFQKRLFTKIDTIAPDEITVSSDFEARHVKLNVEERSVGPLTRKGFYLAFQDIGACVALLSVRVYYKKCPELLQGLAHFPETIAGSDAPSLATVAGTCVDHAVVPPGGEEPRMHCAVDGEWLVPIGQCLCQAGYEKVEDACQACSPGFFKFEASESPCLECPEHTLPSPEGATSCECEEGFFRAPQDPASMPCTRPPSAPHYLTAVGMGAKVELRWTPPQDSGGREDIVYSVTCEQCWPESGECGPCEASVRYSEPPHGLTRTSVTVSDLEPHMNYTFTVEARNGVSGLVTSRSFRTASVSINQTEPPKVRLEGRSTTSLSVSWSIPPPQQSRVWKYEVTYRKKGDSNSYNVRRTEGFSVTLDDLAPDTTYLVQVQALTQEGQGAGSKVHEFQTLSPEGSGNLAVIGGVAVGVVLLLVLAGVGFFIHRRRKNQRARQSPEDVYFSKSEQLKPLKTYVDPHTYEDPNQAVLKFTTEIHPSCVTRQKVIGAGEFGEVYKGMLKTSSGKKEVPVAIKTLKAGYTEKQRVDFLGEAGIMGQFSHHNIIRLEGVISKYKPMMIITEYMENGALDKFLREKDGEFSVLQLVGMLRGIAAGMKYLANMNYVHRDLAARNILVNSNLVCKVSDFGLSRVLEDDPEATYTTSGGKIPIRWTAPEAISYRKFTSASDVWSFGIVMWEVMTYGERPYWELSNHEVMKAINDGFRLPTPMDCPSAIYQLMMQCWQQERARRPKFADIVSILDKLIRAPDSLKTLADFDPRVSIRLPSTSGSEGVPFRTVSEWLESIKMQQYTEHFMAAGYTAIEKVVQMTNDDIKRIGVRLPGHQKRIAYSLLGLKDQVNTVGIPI
T2 sequence (Q9UQM7 whole entry): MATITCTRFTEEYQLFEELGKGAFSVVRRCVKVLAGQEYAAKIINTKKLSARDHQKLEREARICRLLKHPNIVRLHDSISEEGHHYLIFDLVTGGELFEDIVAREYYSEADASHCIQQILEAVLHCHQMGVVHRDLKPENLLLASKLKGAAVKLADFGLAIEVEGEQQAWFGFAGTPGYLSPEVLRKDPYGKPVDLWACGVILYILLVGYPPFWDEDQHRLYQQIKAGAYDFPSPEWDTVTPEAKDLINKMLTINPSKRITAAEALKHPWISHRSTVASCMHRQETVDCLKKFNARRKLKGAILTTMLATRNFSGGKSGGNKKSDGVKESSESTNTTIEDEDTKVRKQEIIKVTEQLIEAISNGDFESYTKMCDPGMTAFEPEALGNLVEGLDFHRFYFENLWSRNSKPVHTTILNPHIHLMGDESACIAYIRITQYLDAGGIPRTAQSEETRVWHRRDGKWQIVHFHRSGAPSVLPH

## Clc1cc(NCC2CC2)c2ncc(-c3ccc4[nH]ncc4c3)n2n1 [compound 2, 6-Chloro-N-(cyclopropylmethyl)-3-(1H-indazol-5-yl)imidazo[1,2-b]pyridazin-8-amine]
EPHA2
  remaining binding at 1 µM: 94%
CAMK2A
  remaining binding at 1 µM: 100%
MAP3K4
  remaining binding at 1 µM: 74%
[1]
  remaining binding at 1 µM: 87%
CAMK2B
  remaining binding at 1 µM: 90%
PIK3CA(I800L)
  remaining binding at 1 µM: 83%
WNK1
  remaining binding at 1 µM: 89%
IKK-beta
  remaining binding at 1 µM: 83%
ALK
  remaining binding at 1 µM: 92%
SRPK3
  remaining binding at 1 µM: 49%
DDR2
  remaining binding at 1 µM: 86%
CSF1R
  remaining binding at 1 µM: 79%
PRKCD
  remaining binding at 1 µM: 93%
LOK
  remaining binding at 1 µM: 100%
ERK3
  remaining binding at 1 µM: 96%
SGK
  remaining binding at 1 µM: 91%

## O=C(CN1CCOCC1)N[C@H]1CC[C@H](Nc2cc(Cl)nn3c(-c4ccc5[nH]ncc5c4)cnc23)CC1 [compound 26]
EPHA2
  remaining binding at 1 µM: 99%
CAMK2A
  remaining binding at 1 µM: 47%
MAP3K4
  remaining binding at 1 µM: 86%
[1]
  remaining binding at 1 µM: 83%
CAMK2B
  remaining binding at 1 µM: 69%
PIK3CA(I800L)
  remaining binding at 1 µM: 88%
WNK1
  remaining binding at 1 µM: 100%
IKK-beta
  remaining binding at 1 µM: 94%
ALK
  remaining binding at 1 µM: 94%
SRPK3
  remaining binding at 1 µM: 66%
DDR2
  remaining binding at 1 µM: 98%
CSF1R
  remaining binding at 1 µM: 21%
PRKCD
  remaining binding at 1 µM: 90%
LOK
  remaining binding at 1 µM: 100%
ERK3
  remaining binding at 1 µM: 68%
SGK
  remaining binding at 1 µM: 94%

## CN1CCC(CNc2cc(Cl)nn3c(-c4cc5nc(Nc6ccccc6)[nH]c5cc4F)cnc23)CC1 [compound 31, 6-Chloro-3-(6-fluoro-2-(phenylamino)-1H-benzo[d]imidazol-5-yl)-N-((1-methylpiperidin-4-yl)methyl)imidazo[1,2-b]pyridazin-8-amine]
EPHA2
  remaining binding at 1 µM: 94%
CAMK2A
  remaining binding at 1 µM: 99%
MAP3K4
  remaining binding at 1 µM: 86%
[1]
  remaining binding at 1 µM: 81%
CAMK2B
  remaining binding at 1 µM: 100%
PIK3CA(I800L)
  remaining binding at 1 µM: 58%
WNK1
  remaining binding at 1 µM: 76%
IKK-beta
  remaining binding at 1 µM: 90%
ALK
  remaining binding at 1 µM: 70%
SRPK3
  remaining binding at 1 µM: 100%
DDR2
  remaining binding at 1 µM: 100%
CSF1R
  remaining binding at 1 µM: 60%
PRKCD
  remaining binding at 1 µM: 62%
LOK
  remaining binding at 1 µM: 91%
ERK3
  remaining binding at 1 µM: 94%
SGK
  remaining binding at 1 µM: 76%
